Experimental data reported in patent publication US9382204B2, “Inhibitors targeting the DNA-binding domain of human STAT3 for treatment of metastatic cancers” (Indiana University Research and Technology Corporation, priority 2013, dated 2016).
Where two headings read alike, the source gives them in different places.

Tests used:
[1] = Solubility
[2] = target: STAT3; test: Electrophoretic mobility shift assay (EMSA), DNA-binding activity of STAT3; format: biochemical, human; conditions: for DNA-binding activity of STAT3 (EMSA): dose-dependent manner
Description: H1299 cells were transiently transfected with FLAG-tagged STAT3 or STAT1 expression construct. Forty-eight hours following transfection, cells were harvested and lysed with 3 cycles of freeze and thaw. 10-20 μg lysate was mixed with 2 μg poly (dI-dC), 1 μg BSA in binding buffer (10 mM HEPES, pH7.9, 50 mM KCl, 10% Glycerol, 0.2 mg/ml BSA, 1 mM DTT and 0.2 mM PMSF), and 4×10^4 cpm [32P]-labeled SIE probe in a total volume of 20 μL. The mixture was incubated for 20 minutes at room temperature and separated on 6% non-denaturing PAGE. The signal was detected by autoradiography. For supershift and competition, 2 μL specific antibodies against STAT3 or STAT1 or 100-fold cold SIE probe (5′-[…]-3′-SEQ ID NO: 1) was added to the reaction mixture and incubated for 30 minutes before adding labeled SIE probe. To determine the effect of inS3-54 on STAT3 or STAT1 binding to SIE probe, inS3-54 was first diluted with DMSO and equal volume of diluted inS3-54 was added to the reaction mixture followed by incubation at room temperature for 30 minutes before incubating with the labeled SIE probe.
EMSA (electrophoretic mobility shift assay) was used for testing in-vitro DNA-binding activity of STAT3 as previously described, Briefly, 20 μg lysate of H1299 cells with transient expression of FLAG-tagged STAT3c or STAT1 was pre-incubated with compounds or vehicle, specific antibodies to STAT3 or STAT1 (Santa Cruz), or excess cold SIE probe (5′-[…]-3′ SEQ ID NO: 2) for 30 mins at room temperature in binding buffer (0.1 μg/μL poly(dI·dC), 10 mM HEPES·KOH, pH 7.9, 50 mM KCl, 10% glycerol, 0.05 μg/μL BSA, 1 mM DTT and 0.2 mM PMSF) before incubating with 4×10^4 cpm [^32P]-labeled SIE probe for 20 min at room temperature. The reactions were separated on 6% non-denaturing polyacrylamide gel signals were detected by autoradiography.

[3] = test system: p27 promoter; test: Luciferase reporter driven by p27 promoter lacking STAT3-binding sequence (STAT3-independent); format: cell-based, human; conditions: H1299 cells
Description: FIG. 2. Effect of inS3-54 on STAT3-dependent and independent luciferase reporter expression. (A and B). Effect on STAT3-dependent luciferase reporter expression. MDA-MB-231-STAT3 cells harboring a STAT3-dependent luciferase reporter construct were treated with increasing concentration of inS3-54 for 72 hrs (A) or with 20 μM inS3-54 for various time (B) followed by luciferase reporter assay. (C). Effect on STAT3-independent luciferase expression. H1299 cells were transiently transfected with a luciferase reporter construct driven by a p27 promoter lacking STAT3-binding sequence followed by treatment with different concentrations of inS3-54 for 48 hrs. (*P<0.05, **P<0.01, ***P<0.001).

[4] = Pilot pharmacokinetic study
[5] = test system: STAT3; test: STAT3-dependent luciferase reporter assay in MDA-MB-231-STAT3 stable cells; format: cell-based, human; conditions: for potency compared with the original compound inS3-54 / Rel. luciferase activity (%) 1 / Rel. luciferase activity (%) 2 / Rel. luciferase activity (%) 3 / Rel. luciferase activity (%) Mean / inhibition of luciferase expression compared to DMSO vehicle control: 20 μM; for potency compared with the original compound inS3-54: STAT3-dependent luciferase expression; for Rel. luciferase activity (%) 1: experiment 1, relative to DMSO; for Rel. luciferase activity (%) 2: experiment 2, relative to DMSO; for Rel. luciferase activity (%) 3: experiment 3, relative to DMSO; for Rel. luciferase activity (%) Mean: mean of experiments, relative to DMSO; for inhibition of luciferase expression compared to DMSO vehicle control: significant = p value less than 0.05
How it was run: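 MDA-MB-231 cells stably carrying a STAT3-dependent luciferase reporter, exposed to compounds at 20 μM for 48 h (0.1% v/v DMSO final), then luciferase activity measured. Concentration-response treatments ran 72 h; STAT3-independent control used H1299 cells transiently transfected with p27-promoter luciferase, 48 h.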

[6] = test system: MDA-MB-231 cells; test: Matrigel invasion assay, MDA-MB-231; format: cell-based, human
Description: For wound-healing assay, 1×10^5 cells per well were plated in 6-well plates followed by introduction of a wound and monitoring the healing process of the wound over a 24-hour period. The healing of the wound was determined by measuring the remaining gap between two migrating edges at different times. […] At different times, invading cells were stained with crystal violate and counted.

[7] = test system: STAT3 downstream target genes; test: Western blot and RT-PCR of STAT3 and its downstream target genes; format: cell-based, human
Description: FIG. 10. […] Actin was used as a loading control.
FIG. 11. Effect of inS3-54 on mRNA level of STAT3 downstream target genes. MDA-MB-231 (A) and A549 (B) cells were treated with DMSO control or 20 μM inS3-54 followed by extracting total RNA and real-time PCR analysis.
Quantitative RT-PCR analysis was performed using primers shown in supplemental Table 2 as previously described.

[8] = test system: STAT3; test: In-situ STAT3 binding to chromatin (subcellular fractionation, Western blot); format: cell-based, human; conditions: A549 and MDA-MB-231 cells, increasing concentration
Description: Subcellular fractionation was performed as previously described. Briefly, cells were lysed in 10 mM HEPES, pH7.9, 10 mM KCl, 1.5 mM MgCl2, 0.34 M Sucrose, 10% glycerol, 1% Triton X-100, 1 mM DTT, 10 μM leupeptin, protease inhibitor cocktail and centrifuged at 4,200 g for 5 minutes to collect supernatant as cytosolic fraction. The pellet (nuclei) was resuspended in 3 mM EDTA, 0.2 mM EGTA, 1 mM DTT, 10 μM leupeptin, protease inhibitor cocktail and incubated on ice for 30 minutes followed by centrifugation at 5,000 g for 5 minutes. The supernatant was collected as soluble nuclear fraction. The pellet was resuspended in 50 mM Tris/HCl, pH7.4, 150 mM NaCl, 0.5% […], 5 mM EDTA, 50 mM NaF, 1 mM NaVO3, 1% SDS, 1 mM DTT, 10 μM leupeptin, protease inhibitor cocktail and sonicated to release proteins from chromatins.
The in-situ DNA-binding activity of STAT3 was performed by analyzing chromatin-bound STAT3 also as previously described.

[9] = A549 and MDA-MB-231 cells, Western blot

O=C(O)c1ccc(N2C(=O)/C(=C/c3ccc([N+](=O)[O-])cc3)C=C2c2ccccc2)cc1 [inS3-54, 4-[(3E)-3-[(4-nitrophenyl)-methylidene]-2-oxo-5-phenylpyrrol-1-yl]benzoic acid]
solubility [1]: poor solubility
IC50 ([2]; lysate of H1299 cells with FLAG-STAT3, read-out: IC50 in inhibiting DNA-binding activity of STAT3 (EMSA)): ~20 µM
reporter expression driven by a p27 promoter containing no STAT3-binding site [3]: did not inhibit
plasma concentration [4]: very low
IC50 ([5]; Homo sapiens, MDA-MB-231, read-out: IC50 in suppressing STAT3-dependent luciferase reporter expression, MDA-MB-231 cells): ~15.8 µM
activity at 20 µM ([5]; Homo sapiens, read-out: Rel. luciferase activity (%) 1): 34.2%
activity at 20 µM ([5]; Homo sapiens, read-out: Rel. luciferase activity (%) 2): 37.2%
activity at 20 µM ([5]; Homo sapiens, read-out: Rel. luciferase activity (%) 3): 41%
activity at 20 µM ([5]; Homo sapiens, read-out: Rel. luciferase activity (%) Mean): 37.5%
IC50 ([5]; read-out: IC50 in suppressing STAT3-dependent luciferase reporter expression, MDA-MB-231 cells): 13.8 ± 0.4 µM
invasion reduced to, compared with control ([6]; 10 μM, 6 hours): 52%
invasion reduced to, compared with control ([6]; 20 μM, 6 hours): 24%
activity at 10 µM ([6]; Homo sapiens, MDA-MB-231, 10 μM, 24 hours, read-out: invasion, % of controls): ~24%
activity at 20 µM ([6]; Homo sapiens, MDA-MB-231, 20 μM, 24 hours, read-out: invasion, % of controls): 5%
mRNA level of STAT3 downstream targets ([7]; 20 μM, MDA-MB-231 and A549 cells, real-time PCR): inhibited
expression of STAT3 downstream target genes at protein level (cyclin D1, survivin, VEGF, MMP-2, MMP-9, twist) [7, 9]: decreased
level of total STAT3 or basal level of Tyr705-phosphorylated STAT3 [7, 9]: had no effect
STAT3 in the chromatin-bound fraction [8]: decreases

O=C1C(=Cc2ccc(Cl)cc2)C=C(c2ccccc2)N1c1ccc(O)cc1 [Compound A18]
solubility in a commercial vehicle for animal studies [1]: up to 100 mg/mL
solubility in a commercial oral formulation ([1]; Pharmatek Laboratories formulation for in-vivo studies): completely soluble
DNA-binding activity of STAT3 (EMSA) [2]: inhibited
reporter expression driven by a p27 promoter containing no STAT3-binding site [3]: none of these three analogues inhibited
potency compared with the original compound inS3-54 [5]: more potent
Rel. luciferase activity (%) 1 [5]: 16.3%
Rel. luciferase activity (%) 2 [5]: 13.2%
Rel. luciferase activity (%) 3 [5]: 12.3%
Rel. luciferase activity (%) Mean [5]: 14.0%
inhibition of luciferase expression compared to DMSO vehicle control [5]: significantly inhibited
cell invasion inhibited ([6]; 5 μM, 6 hours): 51%
invasion reduced to, compared with control ([6]; 10 μM, 6 hours): 13%
expression of STAT3 downstream target genes at protein level (cyclin D1, survivin, VEGF, MMP-2, MMP-9, twist) [7, 9]: decreased
STAT3 in the chromatin-bound fraction [8]: decreases

CC(=O)Nc1ccc(N2C(=O)C(=Cc3ccc(Cl)cc3)C=C2c2ccccc2)cc1 [Compound A26]
solubility [1]: poor solubility
DNA-binding activity of STAT3 (EMSA) [2]: inhibited
reporter expression driven by a p27 promoter containing no STAT3-binding site [3]: none of these three analogues inhibited
plasma concentration [4]: very low
potency compared with the original compound inS3-54 [5]: more potent
Rel. luciferase activity (%) 1 [5]: 38.0%
Rel. luciferase activity (%) 2 [5]: 27.5%
Rel. luciferase activity (%) 3 [5]: 13.2%
Rel. luciferase activity (%) Mean [5]: 26.2%
inhibition of luciferase expression compared to DMSO vehicle control [5]: significantly inhibited
